Data set [1] relates to PD1-ss+10aa/Gaussia Luciferase. As to the kind of experiment: Dox-Induced PD1-ss-Gluc Assay. It is filed as cell-based. The following applies: 24 hr Dox induction; 293FRT/TO cells; mean; read-out: 24 hr Dox Inducible PD1ssGluc 293FRT/TO: Mean IC50. The essentials: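 Stable Flp-In 293 T-REx cells carried a doxycycline-inducible construct of Gaussia luciferase fused to the PD1 signal sequence plus 10 amino acids. Cells were plated the day before, then treated with compound dilutions in DMSO/media containing doxycycline at 37 °C, 5% CO2.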

The subject of data set [2] is TNFα-FL/Gaussia Luciferase. As to the kind of experiment: Dox Induced TNFα-FL-Gluc Assay. It is filed as cell-based. The following applies: for IC50: 24 hr Dox induction, 293FRT/TO cells, mean, read-out: 24 hr Dox Inducible TNFaFLGluc 293FRT/TO: Mean IC50; for 24 hr Dox Inducible TNFaFLGluc 293FRT/TO: TNF/PD1: ratio of TNFaFLGluc IC50 to PD1ssGluc IC50, '<=>' given where both are I.A. In short, it runs like this: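 Hygromycin/blasticidin-selected Flp-In 293 T-REx cells, TNFα-FL/Gaussia luciferase fusion under T-REx control; overnight plating, then compound in DMSO/media with doxycycline at 37 °C, 5% CO2; stereo-undefined structures tested as mixtures.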

The subject of data set [3] is HER3-ss+4aa/Gaussia Luciferase. As to the kind of experiment: Dox-Induced Her3-ss-Gluc Assay. It is filed as cell-based. To be noted: 24 hr Dox induction; 293FRT/TO cells; mean; read-out: 24 hr Dox Inducible Her3(ss + 4)Gluc 293FRT/TO: Mean IC50. In short, it runs like this: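 Doxycycline-inducible HER3 signal sequence+4aa/Gaussia luciferase construct, stably integrated in Flp-In 293 T-REx cells; compound dilutions applied with doxycycline at 37° C., 5% CO2.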

For data set [4], the system named is IL-2-FL/Gaussia Luciferase. Briefly: Dox Induced IL2-FL-Gluc Assay. It is filed as cell-based. To be noted: for IC50: 24 hr Dox induction, 293FRT/TO cells, mean, read-out: 24 hr Dox Inducible IL2FLGluc 293FRT/TO: Mean IC50; for 24 hr Dox Inducible IL2FLGluc 293FRT/TO: IL2/PD1: ratio of IL2FLGluc IC50 to PD1ssGluc IC50, '<=>' given where both are I.A. The essentials: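 A hygromycin- and blasticidin-resistant 293 T-REx clone carrying inducible IL-2–Gaussia luciferase (full-length IL-2, residues 1-153) serves as the cell system. After overnight plating, the cells get test compounds together with doxycycline in DMSO/media and are incubated at 37° C, 5% CO2.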

Data set [5] concerns multiple myeloma cell line NCI-H929. As to the kind of experiment: H929 Cell Viability Assay. It is filed as cell-based, human. To be noted: Homo sapiens, NCI-H929, 48 h, NCI-H929 cells, Celltiter-Glo. In short, it runs like this:
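A 48-hour compound treatment of cells in 10% FBS RPMI medium was followed by luciferase-based viability quantification.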

Data set [6] relates to multiple myeloma cell line U266B1. As to the kind of experiment: U266 Cell Viability Assay. It is filed as cell-based, human. The following applies: Homo sapiens, U-266, 48 h, U266B1 cells, Celltiter-Glo. In short, it runs like this: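 After growth in serum-supplemented RPMI 1640, cells received serially diluted compound in DMSO/media and were kept 48 hours before a CellTiter-Glo luminescence readout.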

Data set [7] in a line: Liver Microsome Stability Assay (rat). To be noted: rat liver microsomes, with NADPH, 1.0 uM compound.
Protocol: (§1) Stability of a compound was assessed in the presence of liver microsomes from various sources—mouse, rat, monkey and human liver microsomes. 1.0 uM compound, 0.4% DMSO in 0.1 M Potassium Phosphate with 1.0 mg/mL liver microsomes, were incubated at 37° C. with or without 1 mM NADPH. The samples were quenched at 0, and 30 minutes.
Data set [8] in a line: Liver Microsome Stability Assay (mouse). To be noted: mouse liver microsomes, with NADPH, 1.0 uM compound.
Protocol: as §1
A short description of data set [9]: Liver Microsome Stability Assay (human). To be noted: human liver microsomes, with NADPH, 1.0 uM compound. On the technique in general: Microsomes from liver hold many membrane-bound enzymes, among them those of drug oxidation.
Protocol: as §1
Data set [10] is described as follows: Liver Microsome Stability Assay (monkey). The following applies: monkey liver microsomes, with NADPH, 1.0 uM compound.
Protocol: as §1

Where only a bound is given, the exact number is not on record here.

Broadly, the EC50 is the concentration needed to bring the measured effect to its halfway point. For the compound `O=C(Nc1nc(/C=C/[C@@H]2CCCCN2)cs1)c1cccn1Cc1ccncc1` [Compound E18, (S,E)-N-(4-(2-(piperidin-2-yl)vinyl)thiazol-2-yl)-1-(pyridin-4-ylmethyl)-1H-pyrrole-2-carboxamide], the IC50 in data set [1], in data set [2], in [3] and in [4] was over 5 µM throughout. In addition, in data set [4], the “24 hr Dox Inducible IL2FLGluc 293FRT/TO: IL2/PD1” value amounted to 1. Also, the EC50 in [5] and in data set [6] was over 25 µM in each case. The “Liver Microsome Stability (Multiple Species): Rat - % Remaining after 30 min w/NADPH” value in data set [7] came to 19.4%. In addition, the “Liver Microsome Stability (Multiple Species): Mouse - % Remaining after 30 min w/NADPH” value in data set [8] is reported as 33.5%. For the same compound, the “Liver Microsome Stability (Multiple Species): Human - % Remaining after 30 min w/NADPH” value in data set [9] was found to be 0.2%. For the same compound, the “Liver Microsome Stability (Multiple Species): Monkey - % Remaining after 30 min w/NADPH” value in data set [10] is 0.27%.

As to `O=C(Nc1nc([C@H]2CCCN2c2ccccc2)cs1)c1cccn1CCc1cccnc1` [Compound E21, (R)-N-(4-(1-phenylpyrrolidin-2-yl)thiazol-2-yl)-1-(2-(pyridin-3-yl)ethyl)-1H-pyrrole-2-carboxamide], the IC50 in [1] was 6.48 µM; in data set [2], over 25 µM; in data set [3], over 25 µM; in data set [4] it was over 25 µM. Further, the “24 hr Dox Inducible TNFaFLGluc 293FRT/TO: TNF/PD1” value in [2] was over 3.86. Further, the “24 hr Dox Inducible IL2FLGluc 293FRT/TO: IL2/PD1” value in data set [4] was over 3.9. The EC50 in data set [5] was found to be 15.6 µM; in [6], 23.7 µM. Further, the “Liver Microsome Stability (Multiple Species): Rat - % Remaining after 30 min w/NADPH” value in data set [7] worked out at 0.1%. In addition, in data set [8], the “Liver Microsome Stability (Multiple Species): Mouse - % Remaining after 30 min w/NADPH” value is on record as 0.02%. The “Liver Microsome Stability (Multiple Species): Human - % Remaining after 30 min w/NADPH” value in data set [9] came out at 0.8%. In data set [10], the “Liver Microsome Stability (Multiple Species): Monkey - % Remaining after 30 min w/NADPH” value came to 0.23%.

`O=C(Nc1nc([C@H]2CCCN2c2ccccc2)cs1)c1cccn1Cc1ccncc1Br` [Compound E22, (R)-1-((3-bromopyridin-4-yl)methyl)-N-(4-(1-phenylpyrrolidin-2-yl)thiazol-2-yl)-1H-pyrrole-2-carboxamide]: the IC50 in [1] stood at 0.13 µM; in data set [2] it was 3.42 µM; in data set [3], 0.216 µM; in data set [4] it was 0.399 µM. Besides, the “24 hr Dox Inducible TNFaFLGluc 293FRT/TO: TNF/PD1” value in [2] is listed as 26.4. Also, the “24 hr Dox Inducible IL2FLGluc 293FRT/TO: IL2/PD1” value in [4] turned out to be 3.1. The EC50 in data set [5] is 11.9 µM; in data set [6], over 25 µM. Moreover, in data set [7], the “Liver Microsome Stability (Multiple Species): Rat - % Remaining after 30 min w/NADPH” value came out at 0.79%. The “Liver Microsome Stability (Multiple Species): Mouse - % Remaining after 30 min w/NADPH” value in data set [8] is on record as 1.4%. In [9], the “Liver Microsome Stability (Multiple Species): Human - % Remaining after 30 min w/NADPH” value was determined as 11.5%. Also, the “Liver Microsome Stability (Multiple Species): Monkey - % Remaining after 30 min w/NADPH” value in [10] is on record as 0.58%.

With `O=C(Nc1nc([C@H]2CCCN2c2ccccc2)cs1)c1cccn1Cc1ccnc(Br)c1` [Compound E23, (R)-1-((2-bromopyridin-4-yl)methyl)-N-(4-(1-phenylpyrrolidin-2-yl)thiazol-2-yl)-1H-pyrrole-2-carboxamide], the IC50 in [1] stood at 0.338 µM; in [2], 11.4 µM; in data set [3] it was 0.629 µM; in [4], 0.773 µM. In addition, the “24 hr Dox Inducible TNFaFLGluc 293FRT/TO: TNF/PD1” value in [2] was found to be 33.8. Further, in [4], the “24 hr Dox Inducible IL2FLGluc 293FRT/TO: IL2/PD1” value is reported as 2.3. In addition, the figures for the EC50 in data set [5] and in data set [6] were 18 µM and over 25 µM, respectively. Also, the “Liver Microsome Stability (Multiple Species): Rat - % Remaining after 30 min w/NADPH” value in [7] is given as 4.14%. For the same compound, in [8], the “Liver Microsome Stability (Multiple Species): Mouse - % Remaining after 30 min w/NADPH” value was determined as 6.17%. For the same compound, the “Liver Microsome Stability (Multiple Species): Human - % Remaining after 30 min w/NADPH” value in data set [9] is reported as 3%. Moreover, in data set [10], the “Liver Microsome Stability (Multiple Species): Monkey - % Remaining after 30 min w/NADPH” value is given as 2.07%.

On to `CC(=O)NC/C=C/c1csc(NC(=O)c2cccn2Cc2ccncc2)n1` [Compound E30, (E)-N-(4-(3-acetamidoprop-1-en-1-yl)thiazol-2-yl)-1-(pyridin-4-ylmethyl)-1H-pyrrole-2-carboxamide], for which the IC50 in [1], in data set [2], in data set [3] and in [4] was over 25 µM throughout. Also, the “24 hr Dox Inducible IL2FLGluc 293FRT/TO: IL2/PD1” value in data set [4] stood at 1. Further, the EC50 in data set [5] and in [6] was over 25 µM throughout. Moreover, the “Liver Microsome Stability (Multiple Species): Rat - % Remaining after 30 min w/NADPH” value in data set [7] was 37.7%. Further, in data set [8], the “Liver Microsome Stability (Multiple Species): Mouse - % Remaining after 30 min w/NADPH” value is recorded as 26.4%. Moreover, in [9], the “Liver Microsome Stability (Multiple Species): Human - % Remaining after 30 min w/NADPH” value is reported as 20.8%. Besides, in data set [10], the “Liver Microsome Stability (Multiple Species): Monkey - % Remaining after 30 min w/NADPH” value was determined as 9.96%.

`CN(C)CCO[C@@H]1C[C@H](c2csc(NC(=O)c3cccn3Cc3ccncc3)n2)N(c2ccccc2)C1` [Compound E31]: the IC50 in data set [1] is 1.67 µM; in [2], over 25 µM; in data set [3] it was 9.14 µM; in data set [4], 9.02 µM. Further, the “24 hr Dox Inducible TNFaFLGluc 293FRT/TO: TNF/PD1” value in [2] is over 15.0. The “24 hr Dox Inducible IL2FLGluc 293FRT/TO: IL2/PD1” value in data set [4] was 5.4. In addition, the EC50 amounted to 8.9 µM in data set [5] and 7.85 µM in [6]. Moreover, the “Liver Microsome Stability (Multiple Species): Rat - % Remaining after 30 min w/NADPH” value in [7] worked out at 21.2%. In addition, the “Liver Microsome Stability (Multiple Species): Mouse - % Remaining after 30 min w/NADPH” value in [8] is reported as 38.3%. For the same compound, the “Liver Microsome Stability (Multiple Species): Human - % Remaining after 30 min w/NADPH” value in data set [9] came to 2.06%. Further, in data set [10], the “Liver Microsome Stability (Multiple Species): Monkey - % Remaining after 30 min w/NADPH” value stood at 0.25%.

On to `O=C(Nc1nc([C@H]2C[C@@H](OCCO)CN2c2ccccc2)cs1)c1cccn1Cc1ccncc1` [Compound E32], for which the IC50 was found to be 1.02 µM in [1], 7.08 µM in [2], 3.06 µM in [3] and 3.94 µM in data set [4]. In addition, in data set [2], the “24 hr Dox Inducible TNFaFLGluc 293FRT/TO: TNF/PD1” value is given as 6.91. The “24 hr Dox Inducible IL2FLGluc 293FRT/TO: IL2/PD1” value in [4] is recorded as 3.9. Also, the results for the EC50 in data set [5] and in data set [6] were 24.9 µM and over 25 µM, respectively. In [7], the “Liver Microsome Stability (Multiple Species): Rat - % Remaining after 30 min w/NADPH” value was determined as 0.79%. Further, the “Liver Microsome Stability (Multiple Species): Mouse - % Remaining after 30 min w/NADPH” value in [8] is reported as 3.3%. Moreover, the “Liver Microsome Stability (Multiple Species): Human - % Remaining after 30 min w/NADPH” value in data set [9] is given as 0.21%. Further, in [10], the “Liver Microsome Stability (Multiple Species): Monkey - % Remaining after 30 min w/NADPH” value is listed as 0.09%.

As for `O=C(Nc1nc(C2C3CN(c4ccccn4)CC32)cs1)c1cccn1Cc1ccncc1` (stereo not shown) [Compound E33, N-(4-(3-(pyridin-2-yl)-3-azabicyclo[3.1.0]hexan-6-yl)thiazol-2-yl)-1-(pyridin-4-ylmethyl)-1H-pyrrole-2-carboxamide], the IC50 is 1.23 µM in [1], over 25 µM in [2], 3.92 µM in data set [3] and 14.8 µM in data set [4]. Besides, the “24 hr Dox Inducible TNFaFLGluc 293FRT/TO: TNF/PD1” value in [2] is on record as over 20.3. Moreover, in data set [4], the “24 hr Dox Inducible IL2FLGluc 293FRT/TO: IL2/PD1” value came out at 12. In addition, the EC50 in data set [5] and in data set [6] was over 25 µM in each case. Further, the “Liver Microsome Stability (Multiple Species): Rat - % Remaining after 30 min w/NADPH” value in data set [7] came out at 0.18%. For the same compound, the “Liver Microsome Stability (Multiple Species): Mouse - % Remaining after 30 min w/NADPH” value in data set [8] is 2.58%. In addition, in data set [9], the “Liver Microsome Stability (Multiple Species): Human - % Remaining after 30 min w/NADPH” value is recorded as 1.6%. Moreover, in data set [10], the “Liver Microsome Stability (Multiple Species): Monkey - % Remaining after 30 min w/NADPH” value was found to be 0.1%.

Source of the values: patent US20230286973A1, “PROTEIN SECRETION INHIBITORS” (KEZAR LIFE SCIENCES, priority 2020, published 2023).
